Laboratory results from publication PMC7106487, “Design, Synthesis and Discovery of N,N’‐Carbazoyl‐aryl‐urea Inhibitors of Zika NS5 Methyltransferase and Virus Replication” (Chemmedchem, 2020).
Read-outs that look alike come from different tables or passages of the source.

What was measured:
ZIKV NS5-MTase = target: T1, ZIKV NS5-MTase (Zika virus, UniProt Q32ZE1); experiment: MTase inhibition assay ([3H]-SAM, GpppAC4 RNA substrate, DEAE filter binding); assay type: biochemical; settings: for inhibition at 50 µM / inhibition of ZIKV NS5-MTase: initial screen, compounds at 50 μM, 30 min at 30 °C
T1 construct: made in house
Protocol: (§1) The library of compounds 9, 11, 12, 14, 15, 16 and 21 was then assessed on different purified recombinant MTases. All compounds were initially screened at 50 μM against ZIKV NS5‐MTase and hRNMT as well as against DENV NS5‐MTase due to its similarity with ZIKV protein. The SAM mimetic sinefungin was included as control.
(§2) The MTases were incubated with radiolabeled [^3H]‐SAM together with the GpppAC4 RNA substrate and the different compounds at 50 μM. The reaction was stopped after 30 mins at 30 °C. The sample products were filtered on a DEAE membrane to remove non‐incorporated [^3H]‐SAM, and radioactivity transferred on the RNA substrate was counted. […]
(§3) DENV, ZIKV and hRNMT MTase production and purification
(§4) The coding sequence of the ZIKV MTase domain was cloned in pDest 14 (Invitrogen) expression vector as recently described,9 and the DENV and ZIKV MTase were produced and purified following the protocols applied for the DENV MTase.10 The human N7-MTase (hRNMT) was cloned in pDest 14 (Invitrogen) expression vector as described.11 The hRNMT was produced in e.coli Rosetta (DE3) cells transformed with pDest14/6His -hRNMT and purified on immobilized-metal-affinity chromatography (IMAC, Amersham Biosciences) followed by hearine, as described previously.11
(§5) The MTase activity of the different recombinant proteins was assayed upon pre -incubation of the MTase (5 min) with a selected fragment and the reactions were started by addition of a […]
(§6) small capped RNA substrate GpppAC4 with the [3H]AdoMet.12 The MTase activity assay was performed in 20 µl samples containing 40 mM Tris-HCl pH 7.5, 5 mM DTT (except for hRNMT), 10 µM AdoMet (0.2-2 µCi [3H]SAM), 1 µM of DENV or ZIKV MTase or 200 nM of hRNMT, 1 µM GpppAC4 in presence of 1µl of compounds solubilized in DMSO 100%.
(§7) Reactions were incubated at 30°C for 30 min and stopped by 20-fold dilution in an ice-cold 100 µM AdoHcy (SAH) solution. Samples were then transferred onto a DEAE membrane (DEAE Filtermat; Wallac) by using a Filtermat Harvester (Packard Instruments) washed with 0.01 M ammonium formate (pH 8.0), water and 95 % ethanol, and the radioactivity transferred onto RNA was measured using a Wallac 1450 MicroBeta Trilux Liquid Scintillation Counter.
(§8) The inhibitor concentration at 50% activity (IC50) was determined by performing the MTase assays in presence of serial dilution of the inhibitor in DMSO (final concentration in the assay 5%). All data points were measured in duplicate. The IC50 values were determined by curve fitting with Prism software using a logistic dose-response function: % activity = 100/(1+[I]/IC50)b, where b corresponds to the slope factor and [I] to inhibitor concentration. […]
(§9) Spectrometer using low-resolution ESI or high-resolution nano ESI techniques. The purity of the compounds was assessed by reverse -phase liquid chromatography coupled with a mass spectrometer (Agilent series 1100 LC/MSD) with a UV detector at λ = 254 nm and an electrospray ionization source (ESI). HPLC analysis was carried out using a Perkin -Elmer 1100 HPLC system coupled with UV/Vis set to 254 nm. Mass spectra were acquired in positive mode scanning over the mass range of 50–1500. The following ion source parameters were used: drying gas flow, […]; nebulize pressure, 40 psig; and drying gas temperature, 350 […]
(§10) performed using commercially available pre-coated plates and visualized with UV light at 254 nm; KMnO4 was used to reveal the products. Flash column chromatography was carried out using Sigma Aldrich silica gel particle size, 40-63 µm particle size 60 Å. All reactions were conducted under a nitrogen atmosphere in oven-dried glassware unless stated otherwise. All solvents and commercially available reagents were used as received.

in vitro [1] = assay type: cell-based; settings: ZIKV CC50
Protocol: (§11) Finally, the ability of all the derivatives synthesized in this work to inhibit ZIKV replication was assessed. […]

ZIKV = experiment: CPE-reduction assay, inhibition of ZIKV replication; set-up: species or system Zika virus (ZIKV); settings: cell-based CPE-reduction assay; for EC50: Zika virus
Protocol: as §11

hRNMT (human N7-MTase) = target: T2, hRNMT (human N7-MTase) (Homo sapiens, UniProt O43148); experiment: MTase inhibition assay ([3H]-SAM, GpppAC4 RNA substrate, DEAE filter binding); assay type: biochemical; settings: dose-response, 200 nM hRNMT, 10 µM AdoMet, 30 min at 30 °C
T2 construct: 6His (N); made in house; host or cells: E. coli Rosetta (DE3)
Protocol: as §1, §2, §3, §4, §5, §6, §7, §8, §9, §10

DENV = experiment: Cell-based antiviral activity against DENV; settings: Dengue virus; cell-based assay
in vitro [2] = assay type: cell-based
DENV NS5-MTase = DENV NS5-MTase (Dengue virus type 3, UniProt P27915); experiment: MTase inhibition assay ([3H]-SAM, GpppAC4 RNA substrate, DEAE filter binding); assay type: biochemical; settings: initial screen, compounds at 50 μM, 30 min at 30 °C
Protocol: as §1, §2, §3, §4, §5, §6, §7, §8, §9, §10

host cell = experiment: in vitro; assay type: cell-based
Protocol: as §11

T2 sequence (O43148 whole entry): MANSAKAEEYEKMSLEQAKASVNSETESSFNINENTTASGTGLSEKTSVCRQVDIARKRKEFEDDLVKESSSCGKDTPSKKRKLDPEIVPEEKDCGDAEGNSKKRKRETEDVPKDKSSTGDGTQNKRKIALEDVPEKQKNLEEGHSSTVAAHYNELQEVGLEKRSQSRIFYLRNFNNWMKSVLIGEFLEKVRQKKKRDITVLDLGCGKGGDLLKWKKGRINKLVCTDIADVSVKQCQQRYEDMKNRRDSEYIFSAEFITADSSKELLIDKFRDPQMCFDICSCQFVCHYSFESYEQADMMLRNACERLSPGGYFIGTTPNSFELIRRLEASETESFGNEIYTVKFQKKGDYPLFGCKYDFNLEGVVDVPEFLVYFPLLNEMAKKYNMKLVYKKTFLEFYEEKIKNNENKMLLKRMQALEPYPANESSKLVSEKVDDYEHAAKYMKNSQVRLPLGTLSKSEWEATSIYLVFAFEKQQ
T1 sequence (Q32ZE1 2517-2781): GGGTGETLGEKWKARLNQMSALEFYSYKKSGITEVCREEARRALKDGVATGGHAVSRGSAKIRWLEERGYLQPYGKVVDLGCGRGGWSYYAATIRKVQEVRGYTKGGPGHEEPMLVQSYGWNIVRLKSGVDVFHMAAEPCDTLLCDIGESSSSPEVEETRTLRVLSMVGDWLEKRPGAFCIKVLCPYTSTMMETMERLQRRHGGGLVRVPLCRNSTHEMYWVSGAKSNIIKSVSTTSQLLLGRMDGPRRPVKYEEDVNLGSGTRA
Sequence of DENV NS5-MTase (P27915 2491-2753): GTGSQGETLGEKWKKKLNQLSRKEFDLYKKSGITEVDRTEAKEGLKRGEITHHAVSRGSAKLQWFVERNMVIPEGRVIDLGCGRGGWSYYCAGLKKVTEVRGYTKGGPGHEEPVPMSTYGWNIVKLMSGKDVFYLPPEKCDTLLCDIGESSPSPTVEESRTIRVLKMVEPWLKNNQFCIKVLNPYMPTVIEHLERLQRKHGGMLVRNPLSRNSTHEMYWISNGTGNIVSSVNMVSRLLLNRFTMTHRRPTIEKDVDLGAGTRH

| SMILES | IC50 (ZIKV NS5-MTase) | inhibition at 50 µM (ZIKV NS5-MTase) | CC50 (in vitro [1]) | EC50 (ZIKV) | IC50 (hRNMT (human N7-MTase)) | also measured |
| --- | --- | --- | --- | --- | --- | --- |
| O=C(Nc1ccc(I)cc1)Nc1ccc2c(c1)c1ccccc1n2Cc1ccccc1 [Compound 21c] | 23 ± 1.2 µM | > 30% | – | – | – | – |
| COc1ccc(NC(=O)Nc2ccc3c(c2)c2ccccc2n3Cc2ccccc2)c(OC)c1 [Compound 21e] | 48 ± 1.3 µM | – | – | – | – | – |
| CCn1c2ccccc2c2cc(NC(=S)NCc3ccccc3)ccc21 [Compound 11b] | 70 ± 1.3 µM | – | 19.6 µM | 4.78 µM | ~112 µM | – |
| CCn1c2ccccc2c2cc(NC(=O)Nc3ccc(N)cc3C)ccc21 [Compound 15] | – | 25% | > 12.5 µM | 1.67 µM | – | EC50 (DENV): 9.75 µM; CC50 (in vitro [2]): 20 µM; inhibition of DENV NS5-MTase (DENV NS5-MTase): did not show any effect |
| CCn1c2ccccc2c2cc(NC(=O)Nc3ccc(C(F)(F)F)cc3)ccc21 [Compound 9f] | – | – | – | – | 6.8 ± 0.5 µM | – |
| Cc1cc([N+](=O)[O-])ccc1NC(=O)Nc1ccc2c(c1)c1ccccc1n2CCc1ccccc1 [Compound 21b] | 114 ± 1.3 µM | > 30% | 20 µM | 12.5 µM | – | ZIKV CC50 (host cell): showed toxicity |
| CCn1c2ccccc2c2cc(NC(=O)C(N)CCCCN)ccc21 (stereo not shown) [Compound 16] | – | – | – | – | – | inhibition of ZIKV NS5-MTase (ZIKV NS5-MTase): barely inhibited |
| COc1ccc(NC(=O)Nc2ccc3c(c2)c2ccccc2n3CCc2ccccc2)c(OC)c1 [Compound 21f] | 26 ± 1.2 µM | – | 20 µM | > 20 µM | – | ZIKV CC50 (host cell): showed toxicity |
| CCn1c2ccccc2c2cc(NC(=O)Nc3ccc([N+](=O)[O-])cc3Cl)ccc21 [Compound 9a] | 46 ± 1.1 µM | > 30% | 30.7 µM | > 50 µM | ~122 µM | – |
| CCn1c2ccccc2c2cc(NC(=O)Nc3ccc(OC)cc3OC)ccc21 [Compound 9c] | – | – | > 10 µM | > 10 µM | 27.4 ± 1.9 µM | – |
| Nc1ncnc2c1ncn2[C@@H]1O[C@H](C[C@@H](N)CC[C@H](N)C(=O)O)[C@@H](O)[C@H]1O [Sinefungin, reference compound] | 1.18 ± 0.05 µM | – | – | – | – | – |
| CCn1c2ccccc2c2cc(NC(=O)Nc3ccc(C#N)cc3)ccc21 [Compound 9b] | ~144 µM | – | > 10 µM | > 10 µM | ~253 µM | – |
| O=C(Nc1ccc(I)cc1)Nc1ccc2c(c1)c1ccccc1n2CCc1ccccc1 [Compound 21d] | – | – | 100 µM | 25 µM | – | inhibition of ZIKV NS5-MTase (ZIKV NS5-MTase): poor inhibition |
| CCn1c2ccccc2c2cc(NC(=O)Nc3ccc(I)cc3)ccc21 [Compound 9d] | ~397 µM | > 30% | > 50 µM | > 50 µM | 5.3 ± 0.4 µM | – |
| CCn1c2ccccc2c2cc(NC(=O)Nc3ccc([N+](=O)[O-])cc3C)ccc21 [Compound 6] | 35 ± 5 µM | > 30% | > 3.99 µM | > 3.99 µM | 13.9 ± 0.7 µM | CC50 (host cell): 3.99 µM; ZIKV EC50 (ZIKV): devoid of any antiviral activity |
